Measurements as given in ChEMBL document CHEMBL3870336, “The discovery of quinoline based single-ligand human H1 and H3 receptor antagonists” (Bioorg Med Chem Lett, 2016).
Activity calls are given as the source filed them. The rule behind the calls is not given here.

Columns and labels:
[1] = molecular target: T1, Alpha-1A adrenergic receptor (Homo sapiens, UniProt P35348); assay: Antagonist activity at adrenergic alpha1A receptor (unknown origin) expressed in Rat1 cells assessed as inhibition of phenylephrine-induced Ca2+ flux preincubated for 30 mins followed by phenylephrine addition by Fluo-4-AM-dye based FLIPR assay; format: cell-based
T1 sequence (P35348 whole entry): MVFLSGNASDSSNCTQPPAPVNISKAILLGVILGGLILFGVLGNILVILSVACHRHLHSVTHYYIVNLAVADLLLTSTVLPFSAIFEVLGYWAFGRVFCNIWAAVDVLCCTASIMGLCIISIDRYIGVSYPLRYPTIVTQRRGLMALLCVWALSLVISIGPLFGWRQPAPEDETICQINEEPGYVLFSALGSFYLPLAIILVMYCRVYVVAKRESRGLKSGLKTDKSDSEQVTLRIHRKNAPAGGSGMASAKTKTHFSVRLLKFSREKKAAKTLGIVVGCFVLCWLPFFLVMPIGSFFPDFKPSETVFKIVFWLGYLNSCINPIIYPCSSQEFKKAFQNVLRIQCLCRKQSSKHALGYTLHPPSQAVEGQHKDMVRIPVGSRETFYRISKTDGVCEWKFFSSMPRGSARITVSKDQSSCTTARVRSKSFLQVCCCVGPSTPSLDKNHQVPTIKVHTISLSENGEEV

[2] = molecular target: Voltage-gated inwardly rectifying potassium channel KCNH2 (Homo sapiens, UniProt Q12809); assay: (§1) Displacement of [3H]-dofetilide from human ERG expressed in CHOK1 cell membranes incubated for 4 hrs in dark by luminescent assay; parameters: species or system CHO-K1
Histamine H3 receptor = Histamine H3 receptor (Homo sapiens, UniProt Q9Y5N1); assay: Antagonist activity at human Histamine H3 receptor expressed in CHO cell membranes assessed as inhibition of histamine-induced [35S]GTPgammaS binding after 2 to 6 hrs by scintillation proximity assay; format: functional
[3] = Lipophilicity, logD of compound at pH 7.4; format: physicochemical; settings: buffer
[4] = molecular target: T2, Alpha-1B adrenergic receptor (Homo sapiens, UniProt P35368); assay: Antagonist activity at adrenergic alpha1B receptor (unknown origin) expressed in Rat1 cells assessed as inhibition of phenylephrine-induced Ca2+ flux preincubated for 30 mins followed by phenylephrine addition by Fluo-4-AM-dye based FLIPR assay; format: cell-based
T2 sequence (P35368 whole entry): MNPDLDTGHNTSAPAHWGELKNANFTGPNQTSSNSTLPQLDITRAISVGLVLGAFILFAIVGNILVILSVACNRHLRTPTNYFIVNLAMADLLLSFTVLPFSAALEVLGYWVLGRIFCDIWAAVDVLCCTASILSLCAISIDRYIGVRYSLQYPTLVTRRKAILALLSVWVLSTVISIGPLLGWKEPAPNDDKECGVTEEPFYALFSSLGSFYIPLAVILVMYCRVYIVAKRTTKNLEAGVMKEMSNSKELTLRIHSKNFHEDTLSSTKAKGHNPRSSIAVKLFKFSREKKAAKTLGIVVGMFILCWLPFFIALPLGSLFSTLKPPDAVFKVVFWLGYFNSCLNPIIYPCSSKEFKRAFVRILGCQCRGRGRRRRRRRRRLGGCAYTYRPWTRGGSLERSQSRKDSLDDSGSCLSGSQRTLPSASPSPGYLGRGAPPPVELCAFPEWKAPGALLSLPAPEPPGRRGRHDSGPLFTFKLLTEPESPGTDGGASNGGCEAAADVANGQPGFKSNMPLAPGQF

Histamine H1 receptor [5] = molecular target: T3, Histamine H1 receptor (Homo sapiens, UniProt P35367); assay: Antagonist activity at human Histamine H1 receptor expressed in CHO cells assessed as inhibition of histamine-induced calcium flux preincubated for 30 mins followed by histamine addition by Fluo-4-AM dye based FLIPR assay; format: functional, cell-based
Histamine H1 receptor [6] = molecular target: T3, Histamine H1 receptor; assay: Antagonist activity at human Histamine H1 receptor expressed in CHO cells preincubated for 30 mins prior to histamine addition followed by subsequent washout and histamine challenge at 90 mins by Fluo-4 dye based FLIPR assay relative to azelastine; format: cell-based
Histamine H1 receptor [7] = molecular target: T3, Histamine H1 receptor; assay: Antagonist activity at human Histamine H1 receptor expressed in CHO cells assessed as inhibition of histamine-induced calcium flux at 100 nM preincubated for 30 mins followed by histamine addition by Fluo-4-AM dye based FLIPR assay; format: functional, cell-based; settings: read-out: pA2 (converted)
[8] = Ratio of drug level in brain to plasma in rat; format: ADME; settings: brain and plasma, read-out: BPR
Histamine H1 receptor [9] = molecular target: T3, Histamine H1 receptor; assay: Antagonist activity at human Histamine H1 receptor expressed in CHO cells preincubated for 30 mins prior to histamine addition followed by subsequent washout and histamine challenge at 270 mins by Fluo-4 dye based FLIPR assay relative to azelastine; format: cell-based
hERG (KCNH2) = hERG (KCNH2) (Homo sapiens, UniProt Q12809); assay: as §1; parameters: species or system CHO-K1; settings: human, CHO-K1 cell membranes expressing human ERG, probe [3H]-dofetilide
hERG (KCNH2), sequence (Q12809 whole entry): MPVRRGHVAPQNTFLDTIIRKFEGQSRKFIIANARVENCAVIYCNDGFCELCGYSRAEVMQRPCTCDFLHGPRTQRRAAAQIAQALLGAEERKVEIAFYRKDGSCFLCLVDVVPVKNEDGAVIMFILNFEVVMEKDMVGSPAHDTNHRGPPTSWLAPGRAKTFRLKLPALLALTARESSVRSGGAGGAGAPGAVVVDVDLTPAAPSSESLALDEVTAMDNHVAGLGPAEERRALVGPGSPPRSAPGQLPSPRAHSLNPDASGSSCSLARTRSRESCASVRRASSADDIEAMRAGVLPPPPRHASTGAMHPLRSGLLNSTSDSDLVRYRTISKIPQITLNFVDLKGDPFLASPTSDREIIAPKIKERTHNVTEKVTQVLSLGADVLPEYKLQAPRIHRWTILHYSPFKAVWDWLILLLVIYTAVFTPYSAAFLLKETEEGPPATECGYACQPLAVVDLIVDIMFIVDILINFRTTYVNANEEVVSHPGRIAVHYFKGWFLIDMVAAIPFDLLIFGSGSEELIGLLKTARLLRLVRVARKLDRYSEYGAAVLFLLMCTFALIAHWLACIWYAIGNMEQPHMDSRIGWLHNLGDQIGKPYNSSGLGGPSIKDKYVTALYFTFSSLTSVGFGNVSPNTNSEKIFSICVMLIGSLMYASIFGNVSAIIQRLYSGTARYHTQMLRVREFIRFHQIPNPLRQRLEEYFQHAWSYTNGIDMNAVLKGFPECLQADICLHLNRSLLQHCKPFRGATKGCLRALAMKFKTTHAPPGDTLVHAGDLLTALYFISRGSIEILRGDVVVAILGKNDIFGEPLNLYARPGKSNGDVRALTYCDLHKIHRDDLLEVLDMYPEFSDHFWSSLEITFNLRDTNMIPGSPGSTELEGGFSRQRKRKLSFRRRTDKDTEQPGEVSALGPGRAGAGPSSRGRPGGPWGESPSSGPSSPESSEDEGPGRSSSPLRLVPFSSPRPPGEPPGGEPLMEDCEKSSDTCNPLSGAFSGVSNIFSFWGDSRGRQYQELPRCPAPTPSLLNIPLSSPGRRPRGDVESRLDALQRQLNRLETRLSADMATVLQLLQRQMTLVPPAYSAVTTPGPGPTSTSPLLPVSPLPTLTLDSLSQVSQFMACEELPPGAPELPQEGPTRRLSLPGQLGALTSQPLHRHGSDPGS

Voltage-gated inwardly rectifying potassium channel KCNH2, sequence (Q12809 whole entry): as above
Histamine H3 receptor, sequence (Q9Y5N1 whole entry): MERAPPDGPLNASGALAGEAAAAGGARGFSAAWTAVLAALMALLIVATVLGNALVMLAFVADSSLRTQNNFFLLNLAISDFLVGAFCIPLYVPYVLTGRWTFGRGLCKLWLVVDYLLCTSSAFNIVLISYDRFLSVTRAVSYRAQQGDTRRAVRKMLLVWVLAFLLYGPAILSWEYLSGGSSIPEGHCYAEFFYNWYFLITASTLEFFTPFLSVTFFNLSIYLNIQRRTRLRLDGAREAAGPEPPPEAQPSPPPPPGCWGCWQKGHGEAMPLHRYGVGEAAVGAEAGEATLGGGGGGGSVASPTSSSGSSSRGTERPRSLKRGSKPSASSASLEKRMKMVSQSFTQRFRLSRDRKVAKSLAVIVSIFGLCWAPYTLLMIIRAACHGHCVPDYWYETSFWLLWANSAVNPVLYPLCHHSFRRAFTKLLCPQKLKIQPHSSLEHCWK
T3 sequence (P35367 whole entry): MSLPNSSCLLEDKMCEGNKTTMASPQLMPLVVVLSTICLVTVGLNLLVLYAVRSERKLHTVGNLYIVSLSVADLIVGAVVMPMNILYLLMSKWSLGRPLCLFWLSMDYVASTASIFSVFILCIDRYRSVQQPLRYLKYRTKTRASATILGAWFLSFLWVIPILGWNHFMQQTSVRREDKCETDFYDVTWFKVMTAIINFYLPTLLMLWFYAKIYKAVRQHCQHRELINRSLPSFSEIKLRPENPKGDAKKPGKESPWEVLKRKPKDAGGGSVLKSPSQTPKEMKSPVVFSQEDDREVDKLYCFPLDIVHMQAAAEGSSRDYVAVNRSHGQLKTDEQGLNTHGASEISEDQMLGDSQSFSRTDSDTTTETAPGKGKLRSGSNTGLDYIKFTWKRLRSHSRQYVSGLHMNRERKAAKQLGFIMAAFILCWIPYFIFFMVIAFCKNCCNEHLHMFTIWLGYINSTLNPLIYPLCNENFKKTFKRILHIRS

Row | Ki [1] | Ki (Histamine H3 receptor) | logD [3] | Ki [4] | Ki (Histamine H1 receptor [5]) | inhibition (Histamine H1 receptor [6]) | Kb (Histamine H1 receptor [7]) | Kp [8] | inhibition (Histamine H1 receptor [9]) | Compound | IC50 [2] | IC50 at 4 h (hERG (KCNH2))
1 | 50.1 nM | 0.316 nM | 1.9 | 251 nM | 25.1 nM | Active | 6.31 nM | 0.15 |  | O=C(O)CCc1ccc2cc(Cc3ccccc3)cc(N3CCN(CCc4ccc(OCCCN5CCCCCC5)cc4)CC3)c2n1 | 6310 nM | 
2 | 251 nM | 2 nM | 1 | > 2000 nM | 15.8 nM |  | 2.51 nM |  |  | CCc1cc(N2CCN(CCc3ccc(OCCCN4CCCCCC4)cc3)CC2)c2nc(CCC(=O)O)ccc2c1 |  | 
3 | 7.94 nM | 0.501 nM | 1.9 | 15.8 nM | 20 nM | Active | 10 nM | > 13 | Active | c1cnc2c(N3CCN(CCc4ccc(OCCCN5CCCCCC5)cc4)CC3)cccc2c1 | 7940 nM | 
4 | 316 nM | 0.794 nM | 2.3 | 398 nM | 12.6 nM |  | 1.58 nM |  |  | CCCCc1cc(N2CCN(CCc3ccc(OCCCN4CCCCCC4)cc3)CC2)c2nc(CCC(=O)O)ccc2c1 | 2510 nM | 
5 | > 2000 nM | 1.26 nM | -0.12 | > 2000 nM | > 2510 nM |  |  |  |  | O=C(O)c1ccc2cccnc2c1N1CCN(CCc2ccc(OCCCN3CCCCCC3)cc2)CC1 |  | 
6 | > 2000 nM | 1.58 nM | -0.78 | > 2000 nM | 398 nM |  |  |  |  | O=C(O)c1cnc2c(N3CCN(CCc4ccc(OCCCN5CCCCCC5)cc4)CC3)cccc2c1 | 20000 nM | 
7 | > 2000 nM | 2 nM | -1 | > 2000 nM | > 2510 nM |  |  |  |  | O=C(O)c1cc(N2CCN(CCc3ccc(OCCCN4CCCCCC4)cc3)CC2)c2ncccc2c1 | 39800 nM | 

The remaining lines, values behind:

Row | Compound | Ki [1] | Ki (Histamine H3 receptor) | logD [3] | Ki [4] | Ki (Histamine H1 receptor [5]) | inhibition (Histamine H1 receptor [6]) | Kb (Histamine H1 receptor [7]) | Kp [8] | inhibition (Histamine H1 receptor [9]) | IC50 [2] | IC50 at 4 h (hERG (KCNH2))
8 | c1cnc2c(N3CCN(CCCc4ccc(OCCCN5CCCCCC5)cc4)CC3)cccc2c1 | 31.6 nM | 0.398 nM | 1.8 | 100 nM | 79.4 nM |  |  |  |  | 1000 nM | 
9 | O=C(O)c1ccc2cccc(N3CCN(CCc4ccc(OCCCN5CCCCCC5)cc4)CC3)c2n1 | > 2000 nM | 0.501 nM | -0.37 | > 2000 nM | 251 nM |  |  |  |  |  | 
10 | O=C(O)c1ccnc2c(N3CCN(CCc4ccc(OCCCN5CCCCCC5)cc4)CC3)cccc12 | > 2000 nM | 1.58 nM | -0.24 | > 2000 nM | > 2510 nM |  |  |  |  | > 63100 nM | 
11 | O=C(O)CCc1cnc2c(N3CCN(CCc4ccc(OCCCN5CCCCCC5)cc4)CC3)cccc2c1 | > 2000 nM | 1.26 nM | -0.63 | > 2000 nM | 39.8 nM |  |  |  |  | 31600 nM | 
12 | c1cnc2c(N3CCN(CCCCc4ccc(OCCCN5CCCCCC5)cc4)CC3)cccc2c1 | 79.4 nM | 0.631 nM | 2.2 | 50.1 nM | 15.8 nM | Active | 5.01 nM |  | Active | 1580 nM | 
13 | O=c1c2ccccc2c(Cc2ccc(Cl)cc2)nn1C[C@H]1CCCN1CCCCc1ccc(OCCCN2CCCCCC2)cc1 [GSK-1004723] |  |  |  |  |  | Active |  |  | Active |  | 50.1 nM
14 | O=C(O)/C=C/c1ccc2cccc(N3CCN(CCc4ccc(OCCCN5CCCCCC5)cc4)CC3)c2n1 | 63.1 nM | 1.58 nM | 0.34 | 79.4 nM | 200 nM |  |  |  |  | > 63100 nM | 
15 | O=C(O)CCc1ccc2cccc(N3CCN(CCc4ccc(OCCCN5CCCCCC5)cc4)CC3)c2n1 | > 2000 nM | 1.58 nM | 0.18 | 200 nM | 12.6 nM |  |  |  |  | 15800 nM | 
